The source of these data is US9433687B2, “Anti-Notch3 antibodies and antibody-drug conjugates” (Pfizer Inc., priority 2012, dated 2016).

The test system of test [1] is 37622A1 NSCLC patient-derived xenografts. Put plainly: 37622A1 patient derived NSCLC xenograft model. Conditions: 5 mg/kg Q4dx4. It is filed as in vivo, mouse. The source says:
The effects of anti-Notch3 ADCs were examined in immunodeficient mice on the in vivo growth of human tumor xenografts that were established from fragments of freshly resected 37622A1 NSCLC tumors obtained in accordance with appropriate consent procedures (Asterand). The 37622A1 NSCLC patient-derived xenografts were subcutaneously passaged in vivo as fragments from animal to animal in nude (Nu/Nu) female mice. When the tumors reached a volume of 150 to 300 mm^3, they were staged to ensure uniformity of the tumor size among various treatment groups. The 37622A1 NSCLC patient-derived xenografts model was dosed intravenously four times every four days (Q4d×4) with PBS vehicle, humanized anti-Notch3 ADCs, control huNeg-8.8 ADCs and cisplatin at the doses provided in Table 19.

The subject of test [2] is N87 gastric xenografts. Description: N87 gastric xenograft model. It is filed as in vivo, mouse. Conditions: for tumor volume: dose 5 mg/kg intravenously Q4d×4. The protocol: Similar in vivo experiments were performed with the N87 gastric cancer cell line as described above. To generate xenografts, nude (Nu/Nu) female mice were implanted subcutaneously with 8×10^6 N87 cells in 50% Matrigel (BD Biosciences).
The N87 gastric model was also dosed intravenously Q4d×4 with PBS vehicle, rat-human chimeric anti-Notch3 ADCs and control huNeg-8.8 ADCs, at a dose of 5 mg/kg as provided in FIG. 16D.
The N87 gastric model was also dosed intravenously Q4d×4 with PBS vehicle and rat-human chimeric anti-Notch3 ADCs ch28-mc0131, ch75-mc0131, ch28-m(H2O)c-0131 and ch75-m(H2O)c-0131 at a dose of 5 mg/kg as provided in FIG. 16E.

Test [3] has as its target T1, human Notch2 NRR-Fc (Homo sapiens, UniProt Q04721).
T1 construct: Expression constructs encoding human Notch1 and Notch2 NRR regions, fused with human IgG1 Fc fragments; made in house; host or cells: CHO-PACE cells
T1 sequence (Q04721 1425-1677 limits assumed): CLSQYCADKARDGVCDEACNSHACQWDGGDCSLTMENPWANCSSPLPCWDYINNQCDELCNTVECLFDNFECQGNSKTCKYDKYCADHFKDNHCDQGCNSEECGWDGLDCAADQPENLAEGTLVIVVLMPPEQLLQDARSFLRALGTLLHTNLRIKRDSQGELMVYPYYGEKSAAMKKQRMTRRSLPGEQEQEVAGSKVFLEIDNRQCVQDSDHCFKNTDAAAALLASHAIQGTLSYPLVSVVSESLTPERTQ
Put plainly: Binding to Notch2 NRR-Fc. Conditions: N/B = non-binding. From the text:
Other members of the Notch receptor family play important roles in biological processes. For example, a Notch1 or Notch2 deficiency leads to embryonic death in mouse models. In contrast, a Notch4 deficiency results in no detectable phenotype in mouse models. The closest homologues of the Notch3 NRR region are Notch1 and Notch2 (˜50% homology), and Notch4 is a more distant homologue (˜30% homology). Cross-reactivity of anti-Notch3 antibodies to other members of the Notch family, especially Notch1 and 2, may lead to undesired effects in patients. Therefore, the potential cross-reactivity of r28 and hu28, along with r75 and hu75 to other Notch family members were assessed.
Expression constructs encoding human Notch1 and Notch2 NRR regions, fused with human IgG1 Fc fragments were stably introduced into CHO-PACE cells. Conditioned media from these cells expressing NRR-Fc fusions were collected. Human Notch2 NRR-Fc and human Notch1 NRR-Fc were purified by protein A affinity followed by size exclusion chromatography (SEC). Purified preparations were dialysed into TBS with 1 mM CaCl2 and analyzed on analytical SEC to be >99% in purity.

Test [4] has as its system MDA-MB-468 (breast cancer). Put plainly: In vitro cytotoxicity (MTS), MDA-MB-468. It is filed as cell-based, human. The note with it: Table 13; four days; LP = lacked potency. The protocol: (§1) The effects of anti-Notch3 ADCs were assessed on 1) cell lines endogenously expressing Notch3 protein: HCC2429 (lung cancer), OVCAR3 (ovarian cancer) and MDA-MB-468 (breast cancer), 2) cell lines engineered to over-express full length human Notch3 protein: MDA-MB-468/hNotch3 and U2OS/hNotch3, and 3) a negative control cell line (SW900) using an MTS cellular viability indicator (Promega, Madison, Wis.). These cell lines were cultured with increasing concentrations of anti-Notch3 ADCs comprising rat-human chimeric anti-Notch3 antibodies, ch28 and ch75, and humanized anti-Notch3 antibodies, hu28 and hu75, conjugated to various linker-payload combinations of the present invention. As a specificity control for the anti-Notch3-ADCs, non-targeted control-ADCs (huNeg8.8-ADCs or ch2H6-ADCs) were also tested on the same cell lines. After four days, viability of each culture was assessed. IC50 values were calculated by logistic non-linear regression, model #203 with XL fit v4.2 (IDBS, Guildford, Surry, UK) and presented as ng Ab/mL. The drug antibody ratio (DAR) is also provided.

The subject of test [5] is OVCAR3 (ovarian cancer). Description: In vitro cytotoxicity (MTS), OVCAR3. It is filed as cell-based, human. The note with it: Table 13; four days; LP = lacked potency. The procedure: as §1
(§2) This process generated the anti-Notch3 cysteine mutant ADCs: hu28-(L443C)-vc0101 and hu28-(L443C/κK183C)-vc0101. The activity of the anti-Notch3 cysteine mutant ADCs were assessed on cell lines endogenously expressing Notch3 protein: HCC2429 (lung cancer) and OVCAR3 (ovarian cancer) using an MTS cellular viability indicator as described in previous Examples.

Test [6] has as its system HCC2429 (lung cancer). Put plainly: In vitro cytotoxicity (MTS), HCC2429. It is filed as cell-based, human. Conditions: Table 13; four days; LP = lacked potency. The protocol: as §1, §2
In test [7] the target is T2, MDA-MB-468/hNotch3 (Homo sapiens, UniProt Q9UM47).
T2 construct: cell lines engineered to over-express full length human Notch3 protein: MDA-MB-468/hNotch3 and U2OS/hNotch3; expressed in transfected cells; host or cells: MDA-MB-468
T2 sequence (Q9UM47 40-2321): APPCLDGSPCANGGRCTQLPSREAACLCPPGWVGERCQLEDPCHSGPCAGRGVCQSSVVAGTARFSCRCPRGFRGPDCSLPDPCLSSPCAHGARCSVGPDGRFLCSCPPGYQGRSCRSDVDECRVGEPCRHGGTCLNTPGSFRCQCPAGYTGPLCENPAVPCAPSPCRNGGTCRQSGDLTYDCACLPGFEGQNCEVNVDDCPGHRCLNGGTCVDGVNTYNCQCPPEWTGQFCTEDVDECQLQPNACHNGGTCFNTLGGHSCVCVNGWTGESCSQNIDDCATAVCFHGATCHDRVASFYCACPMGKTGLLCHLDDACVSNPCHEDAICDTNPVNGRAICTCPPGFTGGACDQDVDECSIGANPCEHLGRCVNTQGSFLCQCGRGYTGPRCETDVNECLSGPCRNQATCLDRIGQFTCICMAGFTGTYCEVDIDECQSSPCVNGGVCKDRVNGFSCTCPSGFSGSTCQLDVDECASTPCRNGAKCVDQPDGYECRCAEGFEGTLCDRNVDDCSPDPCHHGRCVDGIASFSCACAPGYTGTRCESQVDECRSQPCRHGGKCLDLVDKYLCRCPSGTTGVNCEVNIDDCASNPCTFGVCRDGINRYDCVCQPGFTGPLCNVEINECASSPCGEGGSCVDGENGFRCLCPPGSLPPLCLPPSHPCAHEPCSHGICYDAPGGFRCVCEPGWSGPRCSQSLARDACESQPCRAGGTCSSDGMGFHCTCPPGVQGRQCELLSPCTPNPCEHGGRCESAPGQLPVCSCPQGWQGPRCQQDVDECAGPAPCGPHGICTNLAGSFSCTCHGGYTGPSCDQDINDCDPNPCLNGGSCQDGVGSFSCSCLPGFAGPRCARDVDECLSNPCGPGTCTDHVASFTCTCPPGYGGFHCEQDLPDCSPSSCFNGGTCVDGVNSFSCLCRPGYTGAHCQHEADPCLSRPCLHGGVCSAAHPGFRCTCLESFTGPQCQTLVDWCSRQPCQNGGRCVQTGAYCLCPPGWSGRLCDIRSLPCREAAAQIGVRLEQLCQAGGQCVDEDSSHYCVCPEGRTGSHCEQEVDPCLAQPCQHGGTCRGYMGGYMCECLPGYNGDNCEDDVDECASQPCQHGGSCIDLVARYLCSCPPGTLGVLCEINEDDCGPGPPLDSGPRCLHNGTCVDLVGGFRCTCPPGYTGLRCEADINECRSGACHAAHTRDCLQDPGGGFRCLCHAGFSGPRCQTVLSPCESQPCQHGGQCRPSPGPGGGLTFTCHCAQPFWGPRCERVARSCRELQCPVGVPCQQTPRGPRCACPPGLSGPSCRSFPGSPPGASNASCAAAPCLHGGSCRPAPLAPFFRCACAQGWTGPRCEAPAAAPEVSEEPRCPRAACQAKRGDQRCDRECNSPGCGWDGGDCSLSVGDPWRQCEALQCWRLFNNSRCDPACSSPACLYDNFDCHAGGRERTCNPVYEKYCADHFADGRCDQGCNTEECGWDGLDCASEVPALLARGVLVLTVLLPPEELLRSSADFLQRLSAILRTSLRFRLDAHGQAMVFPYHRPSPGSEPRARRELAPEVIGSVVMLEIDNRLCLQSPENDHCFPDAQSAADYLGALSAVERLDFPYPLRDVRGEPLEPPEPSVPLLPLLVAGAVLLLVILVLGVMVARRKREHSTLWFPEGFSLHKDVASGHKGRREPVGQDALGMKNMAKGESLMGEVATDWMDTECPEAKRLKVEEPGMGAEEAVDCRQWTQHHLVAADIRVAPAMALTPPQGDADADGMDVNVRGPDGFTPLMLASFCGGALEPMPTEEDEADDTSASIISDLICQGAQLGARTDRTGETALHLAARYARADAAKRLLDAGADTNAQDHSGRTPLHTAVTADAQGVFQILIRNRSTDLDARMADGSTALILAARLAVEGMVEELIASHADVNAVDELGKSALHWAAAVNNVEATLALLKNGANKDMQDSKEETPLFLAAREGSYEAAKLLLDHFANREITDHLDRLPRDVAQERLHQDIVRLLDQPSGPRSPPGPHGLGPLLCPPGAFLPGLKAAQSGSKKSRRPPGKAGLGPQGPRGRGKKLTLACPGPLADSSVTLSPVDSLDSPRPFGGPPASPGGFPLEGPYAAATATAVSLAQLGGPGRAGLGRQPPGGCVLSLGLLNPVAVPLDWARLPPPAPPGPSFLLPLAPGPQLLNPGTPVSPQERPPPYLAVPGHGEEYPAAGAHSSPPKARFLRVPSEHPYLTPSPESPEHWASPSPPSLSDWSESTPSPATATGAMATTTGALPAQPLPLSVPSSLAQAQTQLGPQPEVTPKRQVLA
Description: In vitro cytotoxicity (MTS), MDA-MB-468/hNotch3. It is filed as cell-based. Conditions: Table 13; four days; LP = lacked potency. The protocol:
as §1

Regarding `N.N.[Cl][Pt][Cl]` [Cisplatin, reference compound], the tumor volume in test [1] (Day 4) is 226 mm^3; in test [1] (Day 7), 280 mm^3; in test [1] (Day 11) it was 301 mm^3; in test [1] (Day 14) it was 345 mm^3; in test [1] (Day 18), 309 mm^3; in test [1] (Day 21), 373 mm^3. The tumor volume came to 401 mm^3 in test [1] (Day 25); 446 mm^3 in test [1] (Day 28); 482 mm^3 in test [1] (Day 32); 587 mm^3 in test [1] (Day 35); 591 mm^3 in test [1] (Day 39); 612 mm^3 in test [1] (Day 42). Moreover, the tumor volume came to 723 mm^3 in test [1] (Day 46); 853 mm^3 in test [1] (Day 49); 970 mm^3 in test [1] (Day 53); 1215 mm^3 in test [1] (Day 56); 1428 mm^3 in test [1] (Day 60); 185 mm^3 in test [1] (Day -1). Further, the tumor volume in test [2] (DAY 0) stood at 328 mm^3; in test [2] (DAY 4), 414 mm^3; in test [2] (DAY 7), 520 mm^3; in test [2] (DAY 11), 501 mm^3; in test [2] (DAY 14), 637 mm^3.

B1: r28: parental rat anti-Notch3 antibody clone 28 (VH SEQ ID NO: 5, VL SEQ ID NO: 7) (antibody, V domains shown)
VH: EVQLVESGGGLVQPGRSLTLSCVASGFTFRDYGMTWIRQAPGKGLTWVAYISSGSNYIYYAEAVKGRFTISRDNAKNTLYLQMTSLRSEDTALYFCTRRGPFVLDAWGQGASVTVSS
VL: DIQMTQSPSFLSASVGDRVTINCKASQSINRYLHWFQQKLGEAPKLLIYNANGLQTGIPSRFSGSGSGTDFTLTISSLQSEDVATYFCLQHNTWPDTFGAGTKLELK
As to B1, in test [3], the “Binding to Notch2 NRR-Fc” value is “lacked detectable binding”.

B2: ch28-mc0131 (conjugate)
VH: B1 VH
VL: B1 VL
For B2, the “IC50 (ng Ab/mL) ± S.E.M., MDA-MB-468” value in test [4] is recorded as 35 ± 18.5 ng Ab/mL. Moreover, the “growth of N87 gastric xenografts” value in test [2] (5 mg/kg iv Q4dx4, FIG. 16D, 16E) is “inhibited growth of N87 gastric xenografts”. Further, the “IC50 (ng Ab/mL) ± S.E.M., OVCAR3” value in test [5] came out at 6 ± 1.0 ng Ab/mL. In addition, in test [6], the “IC50 (ng Ab/mL) ± S.E.M., HCC2429” value was found to be 251 ± 77.5 ng Ab/mL.

B3: r75: parental rat anti-Notch3 antibody clone 75 (VH SEQ ID NO: 9, VL SEQ ID NO: 11) (antibody, V domains shown)
VH: QVKLLQSGAALVKPGASVKMSCKASGYAFTDYWVTWVKQSHGKSLEWIGEISPNSGGTNFNEKFKGKATLTVDKSTSTAYMELSRLTSEDSAIYYCTRGEIRYNWFAYWGQGTLVTVSS
VL: DIQMTQSPSSLSASVGDRVTITCKASQNVGNNIAWYQQKPGKAPKLLIYYASNRYTGVPSRFSGSGYGTDFTLTISSLQPEDFATYYCQRLYNSPFTFGGGTKVEIK
B3: the “Binding to Notch2 NRR-Fc” value in test [3] was “lacked detectable binding”.

B4: ch75-vc0101: ch75 conjugated to vc0101 linker-payload (conjugate)
VH: B3 VH
VL: B3 VL
B4: in test [4], the “IC50 (ng Ab/mL) ± S.E.M., MDA-MB-468” value came to 4064 ± 1793.9 ng Ab/mL. In test [7], the “IC50 (ng Ab/mL) ± S.E.M., MDA-MB-468/hNotch3” value is on record as 24 ± 4.0 ng Ab/mL. In test [6], the “IC50 (ng Ab/mL) ± S.E.M., HCC2429” value is listed as 2112 ± 826.0 ng Ab/mL.

B5: ch75-vc6780 (conjugate)
VH: B3 VH
VL: B3 VL
As for B5, in test [4], the “IC50 (ng Ab/mL) ± S.E.M., MDA-MB-468” value is recorded as 6873 ± 4230.0 ng Ab/mL. The “IC50 (ng Ab/mL) ± S.E.M., OVCAR3” value in test [5] stood at 922 ng Ab/mL. In test [7], the “IC50 (ng Ab/mL) ± S.E.M., MDA-MB-468/hNotch3” value came to 21 ± 3.5 ng Ab/mL. Moreover, the “IC50 (ng Ab/mL) ± S.E.M., HCC2429” value in test [6] is on record as 1004 ± 177.0 ng Ab/mL.
